# In publication PMC6364417, “Kinase inhibitor library screening identifies synergistic drug combinations effective in sensitive and resistant melanoma cells” (Journal of Experimental & Clinical Cancer Research : CR, 2019):
# Experiments:
# Experiment in all cases: Kinase inhibitor library screening, PrestoBlue cell viability, 1 or 10 μM, 72 h
# [1] = system: 501Mel cells (parental); conditions: for Cell viability in kinase inhibitor library screening, 501Mel Parental, 1μΜ / Cell viability in kinase inhibitor library screening, 501Mel Parental, 10μΜ / cell viability (kinase inhibitor library screening): 501Mel Parental
# Outline: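 Each compound was applied to parental melanoma cells and to derivatives made resistant to Vemurafenib or Dabrafenib. After treatment, viability was read with PrestoBlue on a plate reader and expressed as % of untreated cells, with each line run at least in duplicate.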
# [2] = system: 501Mel-GP cells (Dabrafenib-resistant)
# [3] = system: 501Mel-XP cells (Vemurafenib-resistant); conditions: for Cell viability in kinase inhibitor library screening, 501Mel XP, 1μΜ / Cell viability in kinase inhibitor library screening, 501Mel XP, 10μΜ / cell viability (kinase inhibitor library screening): 501Mel XP
# [4] = system: A375 cells (parental); conditions: for Cell viability in kinase inhibitor library screening, A375 Parental, 10μΜ / Cell viability in kinase inhibitor library screening, A375 Parental, 1μΜ / cell viability (kinase inhibitor library screening): A375 Parental
# [5] = system: A375-GP cells (Dabrafenib-resistant); conditions: for Cell viability in kinase inhibitor library screening, A375 GP, 1μΜ / Cell viability in kinase inhibitor library screening, A375 GP, 10μΜ / cell viability (kinase inhibitor library screening): A375 GP
# [6] = system: A375-XP cells (Vemurafenib-resistant); conditions: for Cell viability in kinase inhibitor library screening, A375 XP, 1μΜ / Cell viability in kinase inhibitor library screening, A375 XP, 10μΜ / cell viability (kinase inhibitor library screening): A375 XP
# [7] = system: IGR37 cells (parental); conditions: for Cell viability in kinase inhibitor library screening, IGR37 Parental, 1μΜ / Cell viability in kinase inhibitor library screening, IGR37 Parental, 10μΜ / cell viability (kinase inhibitor library screening): IGR37 Parental
# [8] = system: IGR37-GP cells (Dabrafenib-resistant); conditions: for Cell viability in kinase inhibitor library screening, IGR37 GP, 10μΜ / Cell viability in kinase inhibitor library screening, IGR37 GP, 1μΜ / cell viability (kinase inhibitor library screening): IGR37 GP
# [9] = system: IGR37-XP cells (Vemurafenib-resistant); conditions: for Cell viability in kinase inhibitor library screening, IGR37 XP, 10μΜ / Cell viability in kinase inhibitor library screening, IGR37 XP, 1μΜ / cell viability (kinase inhibitor library screening): IGR37 XP
molecule,measurement,setting,value
CC[C@@H]1C(=O)N(C)c2cnc(Nc3ccc(C(=O)N[C@H]4CC[C@H](N5CCN(CC6CC6)CC5)CC4)cc3OC)nc2N1C(C)C [BI6727 (Volasertib)],"Cell viability in kinase inhibitor library screening, 501Mel Parental, 1μΜ","[1]; 1μΜ, 72 h, in %",63.2
same,"Cell viability in kinase inhibitor library screening, 501Mel Parental, 10μΜ","[1]; 10μΜ, 72 h, in %",1.3
same,"Cell viability in kinase inhibitor library screening, 501Mel GP, 1μΜ","[2]; 501Mel GP, 1μΜ, 72 h, in %",26.5
same,"Cell viability in kinase inhibitor library screening, 501Mel GP, 10μΜ","[2]; 501Mel GP, 10μΜ, 72 h, in %",0.363
same,"Cell viability in kinase inhibitor library screening, 501Mel XP, 1μΜ","[3]; 1μΜ, 72 h, in %",9.9
same,"Cell viability in kinase inhibitor library screening, 501Mel XP, 10μΜ","[3]; 10μΜ, 72 h, in %",0.4
same,"Cell viability in kinase inhibitor library screening, A375 Parental, 10μΜ","[4]; 10μΜ, 72 h",29.8
same,"Cell viability in kinase inhibitor library screening, A375 Parental, 1μΜ","[4]; 1μΜ, 72 h",21.7
same,"Cell viability in kinase inhibitor library screening, A375 GP, 1μΜ","[5]; 1μΜ, 72 h",22.8
same,"Cell viability in kinase inhibitor library screening, A375 GP, 10μΜ","[5]; 10μΜ, 72 h",28.0
same,"Cell viability in kinase inhibitor library screening, A375 XP, 1μΜ","[6]; 1μΜ, 72 h",37.1
same,"Cell viability in kinase inhibitor library screening, A375 XP, 10μΜ","[6]; 10μΜ, 72 h",16.8
same,"Cell viability in kinase inhibitor library screening, IGR37 Parental, 1μΜ","[7]; 1μΜ, 72 h, in %",36.2
same,"Cell viability in kinase inhibitor library screening, IGR37 Parental, 10μΜ","[7]; 10μΜ, 72 h, in %",43.0
same,"Cell viability in kinase inhibitor library screening, IGR37 GP, 10μΜ","[8]; 10μΜ, 72 h",8.8%
same,"Cell viability in kinase inhibitor library screening, IGR37 GP, 1μΜ","[8]; 1μΜ, 72 h, in %",75.9
same,"Cell viability in kinase inhibitor library screening, IGR37 XP, 10μΜ","[9]; 10μΜ, 72 h",2.7%
same,"Cell viability in kinase inhibitor library screening, IGR37 XP, 1μΜ","[9]; 1μΜ, 72 h, in %",65.8
Cc1ccc(NC(=O)c2cccc(C(C)(C)C#N)c2)cc1Nc1ccc2ncn(C)c(=O)c2c1 [AZ628],"Cell viability in kinase inhibitor library screening, 501Mel Parental, 1μΜ","[1]; 1μΜ, 72 h, in %",59.7
same,"Cell viability in kinase inhibitor library screening, 501Mel Parental, 10μΜ","[1]; 10μΜ, 72 h, in %",64.1
same,"Cell viability in kinase inhibitor library screening, 501Mel GP, 10μΜ","[2]; 501Mel GP, 10μΜ, 72 h, in %",83.3
same,"Cell viability in kinase inhibitor library screening, 501Mel XP, 1μΜ","[3]; 1μΜ, 72 h, in %",116.3
same,"Cell viability in kinase inhibitor library screening, 501Mel XP, 10μΜ","[3]; 10μΜ, 72 h, in %",79.0
same,"Cell viability in kinase inhibitor library screening, A375 Parental, 10μΜ","[4]; 10μΜ, 72 h",23.0
same,"Cell viability in kinase inhibitor library screening, A375 Parental, 1μΜ","[4]; 1μΜ, 72 h",26.2
same,"Cell viability in kinase inhibitor library screening, A375 GP, 1μΜ","[5]; 1μΜ, 72 h",19.6
same,"Cell viability in kinase inhibitor library screening, A375 GP, 10μΜ","[5]; 10μΜ, 72 h",21.0
same,"Cell viability in kinase inhibitor library screening, A375 XP, 1μΜ","[6]; 1μΜ, 72 h",20.4
same,"Cell viability in kinase inhibitor library screening, A375 XP, 10μΜ","[6]; 10μΜ, 72 h",13.2
same,"Cell viability in kinase inhibitor library screening, IGR37 Parental, 1μΜ","[7]; 1μΜ, 72 h, in %",45.5
same,"Cell viability in kinase inhibitor library screening, IGR37 Parental, 10μΜ","[7]; 10μΜ, 72 h, in %",41.8
same,"Cell viability in kinase inhibitor library screening, IGR37 GP, 10μΜ","[8]; 10μΜ, 72 h",55.7%
same,"Cell viability in kinase inhibitor library screening, IGR37 GP, 1μΜ","[8]; 1μΜ, 72 h, in %",78.8
same,"Cell viability in kinase inhibitor library screening, IGR37 XP, 10μΜ","[9]; 10μΜ, 72 h",15.2%
same,"Cell viability in kinase inhibitor library screening, IGR37 XP, 1μΜ","[9]; 1μΜ, 72 h, in %",60.5
C[C@@H]1COC(Nc2ccc3ncnc(Nc4ccc(OCc5nccs5)c(Cl)c4)c3c2)=N1 [ARRY334543],viability at 1 µM,"[1]; Homo sapiens, 72 h, read-out: cell viability, 501Mel Parental, 1μΜ",97.9%
same,viability at 10 µM,"[1]; Homo sapiens, 72 h, read-out: cell viability, 501Mel Parental, 10μΜ",87.3%
same,viability at 1 µM,"[2]; Homo sapiens, 72 h, read-out: cell viability, 501Mel GP, 1μΜ",101%
same,viability at 10 µM,"[2]; Homo sapiens, 72 h, read-out: cell viability, 501Mel GP, 10μΜ",86.4%
same,viability at 1 µM,"[3]; Homo sapiens, 72 h, read-out: cell viability, 501Mel XP, 1μΜ",118%
same,viability at 10 µM,"[3]; Homo sapiens, 72 h, read-out: cell viability, 501Mel XP, 10μΜ",57.2%
same,viability at 1 µM,"[4]; Homo sapiens, A-375, 72 h, read-out: cell viability, A375 Parental, 1μΜ",103%
same,viability at 10 µM,"[4]; Homo sapiens, A-375, 72 h, read-out: cell viability, A375 Parental, 10μΜ",89.3%
same,viability at 1 µM,"[5]; Homo sapiens, A-375, 72 h, read-out: cell viability, A375 GP, 1μΜ",101%
same,viability at 10 µM,"[5]; Homo sapiens, A-375, 72 h, read-out: cell viability, A375 GP, 10μΜ",83.2%
same,viability at 1 µM,"[6]; Homo sapiens, A-375, 72 h, read-out: cell viability, A375 XP, 1μΜ",107%
same,viability at 10 µM,"[6]; Homo sapiens, A-375, 72 h, read-out: cell viability, A375 XP, 10μΜ",85.8%
same,viability at 1 µM,"[7]; Homo sapiens, IGR-37, 72 h, read-out: cell viability, IGR37 Parental, 1μΜ",102%
same,viability at 10 µM,"[7]; Homo sapiens, IGR-37, 72 h, read-out: cell viability, IGR37 Parental, 10μΜ",85.9%
same,viability at 1 µM,"[8]; Homo sapiens, IGR-37, 72 h, read-out: cell viability, IGR37 GP, 1μΜ",89.4%
same,viability at 10 µM,"[8]; Homo sapiens, IGR-37, 72 h, read-out: cell viability, IGR37 GP, 10μΜ",33%
same,viability at 1 µM,"[9]; Homo sapiens, IGR-37, 72 h, read-out: cell viability, IGR37 XP, 1μΜ",71.6%
same,viability at 10 µM,"[9]; Homo sapiens, IGR-37, 72 h, read-out: cell viability, IGR37 XP, 10μΜ",11.7%
c1ccc2c(-c3cnn4cc(-c5ccc(N6CCNCC6)cc5)cnc34)ccnc2c1 [LDN193189],cell viability (kinase inhibitor library screening),"[1]; 1μΜ, in %",119.0
same,cell viability (kinase inhibitor library screening),"[1]; 10μΜ, in %",0.949
same,cell viability (kinase inhibitor library screening),"[2]; 501Mel GP, 1μΜ, in %",129.1
same,cell viability (kinase inhibitor library screening),"[2]; 501Mel GP, 10μΜ, in %",1.7
same,cell viability (kinase inhibitor library screening),"[3]; 10μΜ, in %",0.8
same,cell viability (kinase inhibitor library screening),"[4]; 1μΜ, in %",104.5
same,cell viability (kinase inhibitor library screening),"[4]; 10μΜ, in %",1.7
same,cell viability (kinase inhibitor library screening),"[5]; 1μΜ, in %",104.8
same,cell viability (kinase inhibitor library screening),"[5]; 10μΜ, in %",3.4
same,cell viability (kinase inhibitor library screening),"[6]; 1μΜ, in %",98.9
same,cell viability (kinase inhibitor library screening),"[6]; 10μΜ, in %",2.6
same,cell viability (kinase inhibitor library screening),"[7]; 10μΜ, in %",0.221
same,cell viability (kinase inhibitor library screening),"[8]; 1μΜ, in %",94.5
same,cell viability (kinase inhibitor library screening),"[8]; 10μΜ, in %",4.6
same,cell viability (kinase inhibitor library screening),"[9]; 1μΜ, in %",103.7
same,cell viability (kinase inhibitor library screening),"[9]; 10μΜ, in %",3.2
MK-2206 dihydrochloride,cell viability (kinase inhibitor library screening),"[1]; 1μΜ, 72 h",98.7%
same,cell viability (kinase inhibitor library screening),"[1]; 10μΜ, 72 h",7.6%
same,cell viability (kinase inhibitor library screening),"[2]; 501Mel GP, 1μΜ, 72 h",90.7%
same,cell viability (kinase inhibitor library screening),"[2]; 501Mel GP, 10μΜ, 72 h",28.3%
same,cell viability (kinase inhibitor library screening),"[3]; 1μΜ, 72 h",69.2%
same,cell viability (kinase inhibitor library screening),"[3]; 10μΜ, 72 h",1.7%
same,cell viability (kinase inhibitor library screening),"[4]; 10μΜ, 72 h",74.4%
same,cell viability (kinase inhibitor library screening),"[5]; 1μΜ, 72 h",96.2%
same,cell viability (kinase inhibitor library screening),"[5]; 10μΜ, 72 h",66.2%
same,cell viability (kinase inhibitor library screening),"[6]; 1μΜ, 72 h",93.8%
same,cell viability (kinase inhibitor library screening),"[6]; 10μΜ, 72 h",54.1%
same,cell viability (kinase inhibitor library screening),"[7]; 10μΜ, 72 h",25.6%
same,cell viability (kinase inhibitor library screening),"[8]; 1μΜ, 72 h",100.0%
same,cell viability (kinase inhibitor library screening),"[8]; 10μΜ, 72 h",15.9%
same,cell viability (kinase inhibitor library screening),"[9]; 1μΜ, 72 h",94.6%
same,cell viability (kinase inhibitor library screening),"[9]; 10μΜ, 72 h",4.2%
CC(C)(C)c1cnc(CSc2cnc(NC(=O)C3CCNCC3)s2)o1 [SNS-032 (BMS-387032)],cell viability (kinase inhibitor library screening),"[1]; 1μΜ, 72 h",23.5%
same,cell viability (kinase inhibitor library screening),"[1]; 10μΜ, 72 h",0.4%
same,cell viability (kinase inhibitor library screening),"[2]; 501Mel GP, 1μΜ, 72 h",31.8%
same,cell viability (kinase inhibitor library screening),"[2]; 501Mel GP, 10μΜ, 72 h",0.161%
same,cell viability (kinase inhibitor library screening),"[3]; 1μΜ, 72 h",30.8%
same,cell viability (kinase inhibitor library screening),"[3]; 10μΜ, 72 h",-0.0482%
same,cell viability (kinase inhibitor library screening),"[4]; 10μΜ, 72 h",7.7%
same,cell viability (kinase inhibitor library screening),"[4]; 1μΜ, 72 h",13.7%
same,cell viability (kinase inhibitor library screening),"[5]; 1μΜ, 72 h",8.3%
same,cell viability (kinase inhibitor library screening),"[5]; 10μΜ, 72 h",3.6%
same,cell viability (kinase inhibitor library screening),"[6]; 1μΜ, 72 h",14.3%
same,cell viability (kinase inhibitor library screening),"[6]; 10μΜ, 72 h",6.4%
same,cell viability (kinase inhibitor library screening),"[7]; 1μΜ, 72 h",3.3%
same,cell viability (kinase inhibitor library screening),"[7]; 10μΜ, 72 h",0.754%
same,cell viability (kinase inhibitor library screening),"[8]; 1μΜ, 72 h",8.6%
same,cell viability (kinase inhibitor library screening),"[8]; 10μΜ, 72 h",2.7%
same,cell viability (kinase inhibitor library screening),"[9]; 1μΜ, 72 h",2.8%
same,cell viability (kinase inhibitor library screening),"[9]; 10μΜ, 72 h",2.1%
